Results from patent publication US12053441B2, “Formulations for improving the delivery of hydrophobic agents” (THE ROYAL INSTITUTION FOR THE ADVANCEMENT OF LEARNING / …, priority 2018, dated 2024).
Converted amounts (≈) assume the structure as drawn. Starred links: 1 amine or outer side, 2 acyl side, 3 side chain; linkers in the order of their positions; H or OH if unused. Positions of bridges follow the written chain, without caps; N, C: chain ends. Non-standard residues stand in square brackets, D forms with d. Residues, ends and D or L forms follow the SMILES beside them. *: point of attachment. hTyr(3S-OH,4S-OH,3'-OSO3H) = N[C@H](C(=O)O)[C@H](O)[C@@H](O)c1ccc(O)c(OS(=O)(=O)O)c1; pTerphenylCO(4''-OnC5H11) = CCCCCOc1ccc(-c2ccc(-c3ccc(C(=O)*)cc3)cc2)cc1; Orn(4R-OH,5R-OH) = O=C([C@H](C[C@@H](O)[C@@H](O)N[*:3])N[*:1])[*:2]; hTyr(3S-OH,4S-OH) = N[C@H](C(=O)O)[C@H](O)[C@@H](O)c1ccc(O)cc1; Pro(3S-OH,4S-Me) = C[C@H]1CN[C@H](C(=O)O)[C@H]1O; X2 = CCCCCOc1ccc(-c2cc(-c3ccc(C(=O)*)cc3)no2)cc1; Gln(3R-OH) = NC(=O)C[C@@H](O)[C@H](N)C(=O)O; Hyp = O=C(O)[C@@H]1C[C@@H](O)CN1

What was measured:
Pdss2/Mclk1 DKO cells [1] = assay: Oxygen consumption rate (OCR) by Seahorse XF analyzer; format: cell-based, mouse; settings: co-treatment with UQ10
Experimental: Measurement of oxygen consumption by Seaborse XF analyzer. Cells were seeded in XF v7 24-well plates (Seahorse Bioscience) at ˜40,000 cells/well for 24 hr. Prior to the measurements, cell medium was replaced with Seahorse XF base medium supplemented with 5.5 mM glucose (Sigma Cat No G8769), 2 mM Glutamax (Thermo Fisher Cat No 35050061) and 1 mM sodium pyruvate and allowed to equilibrate for 1 hour at 37° C. Oxygen consumption was measured first under baseline condition, followed by subsequent addition of 1 μg/ml oligomycin (Sigma Cat No 04876), 0.8 μM FCCP (Sigma Cat No C2920) and a combination of 1 μM rotenone (Sigma Cat No R8875) and 5 μM antimycin A (Sigma Cat No A8674) to assess the basal and maximal mitochondrial respiration rates. Four baseline measurements were recorded before the consecutive addition of the above-mentioned compounds, and three response measurements were taken after the addition of each compound. Results were finally normalized to protein content determined using the Bradford reagent (Bio-Rad). For experiments that involved culturing cells in the presence of lipoprotein-deficient serum (LPDS), cells were grown in culture medium supplemented with LPDS (Sigma S5394) for 1 week before OCR was measured using a Seahorse XF-24 extracellular flux analyzer as described above.

Pdss2/Mclk1 DKO MEFs = assay: Cellular UQ10 levels (quinone quantification by HPLC); format: cell-based, mouse; settings: in combination with UQ10, vs UQ10 alone
Experimental: (§1) Quantification of quinones. Quinone content was detected and quantified by HPLC as previously described. […] After centrifugation for 5 min at 8,000×g, the hexane layer was collected and evaporated in a vacuum centrifuge. The quinone residue was then dissolved in ethanol and stored at −20° C. until HPLC analysis. The HPLC analysis was performed on a reverse phase C18 column (25.0×0.46 cm, 5 μm, Highchrom) using UV detection at 275 nm (Beckman System Gold). The mobile phase was methanol/ethanol (70:30 v/v) and isocratic elution was used at a flow rate of 1.8 ml/min.

[2] = system: mitochondria of wild-type MEFs; assay: UQ levels in mitochondrial extracts; format: cell-based, mouse
Text: FIGS. 7A to 7D present exemplary data showing that McC1 is capable of increasing the uptake of exogenous UQ into cells and mitochondria. (A) Bar chart showing change of UQ10 levels (as measured in ng/μg of protein) in Pdss2/Mclk1 DKO MEFs after treatment with UQ10, McC1 alone, or UQ10 and McC1 in combination. **p<0.01, ***p<0.001 (one-way ANOVA). (B) Bar charts presenting exemplary data showing changes of UQ levels in wildtype MEFs after treatment with UQ10, McC1 alone, or both in combination. Results are shown as cellular UQ10 levels (as provided in ng/μg of protein, left panel) or UQ9 levels (as provided in ng/μg of protein, right panel) in untreated cells, after treatment with 12.5 μM of McC1, after treatment with 2.5 μM of UQ10, or after co-treatment UQ10 and McC1. Results are mean±SEM (n=3). ****p<0.0001 (one-way ANOVA). (C) Bar chart presenting exemplary data showing changes of UQ10 and UQ9 levels in mitochondrial extracts from wildtype MEFs after treatment with UQ10 alone, or in combination with McC1. Results are shown as UQ9 and UQ10 levels in ng/μg of protein. Results are mean±SEM (n=3). ****p<0.0001 (student's t-test). (D) Bar chart presenting exemplary data showing changes of UQ10 level in mitochondrial extracts from Pdss2/Mclk1 DKO MEFs after treatment with UQ10 alone, or in combination with McC1. Results are shown as UQ10 levels (as provided in ng/μg of protein) in untreated DKO cells, after treatment with 2.5 μM of UQ10, or after co-treatment 2.5 μM of UQ10 and 12.5 μM of McC1. ND: Not Detectable. Results are mean±SEM (n=3). ****p<0.0001 (one-way ANOVA).
as §1

[3] = Drop collapse assay (surfactant activity); format: physicochemical
Experimental: Drop collapse assay is a simple detection method of surface active agents. It relies on the capacity of surfactants to destabilize the liquid droplets on an oily surface. The drop-collapsing ability of McC1 along with other known potent surfactants was characterized. For each, 40 ul of compound solution in water was pipetted onto a hydrophobic Parafilm surface and the diameter of the drops was measured 1 min later using a ruler.

Pdss2/Mclk1 DKO cells [4] = assay: Viability in glucose-free galactose-containing medium (resazurin reduction assay); format: cell-based, mouse
Experimental: Tissue culture and viability assays. […] Cell viability was determined by resazurin (Sigma Cat No R7017) reduction assay or crystal violet staining following standard procedures.
(§2) The resazurin cell viability assay. Briefly, resazurin was added directly to plates at 1/10 the volume of glucose culture medium. Viable cells with active metabolism can reduce resazurin into resorufin which causes a colour change from blue to pink. After a 2 hr incubation, plates were read on a plate reader (Tecan) to record absorbance at 570 nm and 600 nm. The cell viability was scored as a percentage relative to the signal from untreated glucose-grown wells. Consequently, each screened compound may be described by its effect (no, partial or full rescue) on survival of the KO cells in galactose medium.
The screen also uses cells lacking UQ biosynthesis (e.g., DKO cells) and its protocol is essentially the same as the galactose-only screen except that in step 2, a minimal amount of UQ10 is added into the galactose screening media at a concentration at which the added UQ10 is insufficient by itself to support survival.

[5] = Experimental: Solubilization studies. In order to link the surfactant properties of McC1 and its stimulating impact on UQ10 uptake, the solubilization characteristics of McC1 on UQ10 have been determined. First, solubilization test was performed by overnight shaking of a mixture of UQ10 and McC1 in water.
Additional solubilization tests were performed using sonication. Excess amount of UQ10 was mixed with McC1 by sonication for 2 min in water.
Like caspofungin/McC1, surfactin is a cyclic lipopeptide. It is produced from various strains of Bacillus subtilis. Structurally it consists of a peptide chain formed by seven amino acids linked to a β-hydroxyl fatty acid via a lactone bond. It is known for its exceptional surfactant power. […] Then, solubilization test was performed by overnight shaking of a mixture of UQ10 and surfactin in water. The mixture were subjected to brief centrifugation to separate undissolved UQ10 before absorbance of the resultant clear supernatant at 275 nm was measured spectrophotometrically.
Several other surfactants were tested for their ability to solubilize UQ. Briefly, excess amount of UQ10 was mixed with water solution of the tested surfactants using sonication. The resultant suspensions were then filtered through a 0.45 μm syringe filter to remove undissolved UQ10.

cells = assay: Cellular UQ measurements after treatment with micellar UQ10 solutions (FIG. 22); format: cell-based; settings: UQ10 solution prepared with the surfactant, 6 μM UQ10, 1-day
Text: UQ levels are expressed as ng per mg of protein (mean±SEM). Each bar represents the average of 2 to 3 independent measurements. […] ND: not detected. #p<0.0001 (vs. untreated controls; two-way ANOVA followed by Dunnett's multiple comparison test).

wildtype MEFs = assay: Cellular UQ10 levels (quinone quantification by HPLC); format: cell-based, mouse; settings: for cellular uptake of exogenous UQ10: in combination with UQ10, vs UQ10 alone
Experimental: as §1

Mclk1 KO cells = assay: Viability in glucose-free galactose-containing medium (resazurin reduction assay); format: cell-based, mouse; settings: sufficiently high dose (FIG. 3A)
Experimental: Tissue culture and viability assays. […] To score growth and viability in galactose, cells were first grown in high glucose DMEM medium to confluency and then switched to glucose-free DMEM media (Thermo Fisher Cat No 26400036) supplemented with 10 mM galactose (Sigma Cat No G5388), 1 mM sodium pyruvate (Thermo Fisher Cat No 11360070), 10% dialyzed FBS (Thermo Fisher Cat No 26400036) and 1% antibiotic-antimycotic solution. Cell viability was determined by resazurin (Sigma Cat No R7017) reduction assay or crystal violet staining following standard procedures.
The screen uses cells lacking UQ (e.g., Mclk1 KO cells) and consists of three key steps: • 1) Day 0: preparation of Mclk1 KO cells in 96-well plates in standard (glucose-containing) culture medium. • 2) Day 1: changing to glucose-free galactose-containing medium and adding compounds to be screened at a concentration of approximately 10 μM. • 3) Day 4 to 6: following 3 to 5 days of incubation with the compound to be screened, media were removed and cell viability was assayed by resazurin reduction assay.
as §2

[6] = cited from earlier work

## CC(C)CCCCCCCCC[C@@H]1CC(=O)N[C@@H](CCC(=O)O)C(=O)N[C@@H](CC(C)C)C(=O)N[C@H](CC(C)C)C(=O)N[C@@H](C(C)C)C(=O)N[C@@H](CC(=O)O)C(=O)N[C@H](CC(C)C)C(=O)N[C@@H](CC(C)C)C(=O)O1 [surfactin] (HELM PEPTIDE1{E.L.[dL].V.D.[dL].L}|CHEM1{[CC(C)CCCCCCCCC[C@H](CC(=O)[*:1])O[*:2]]}$PEPTIDE1,CHEM1,1:R1-1:R1|PEPTIDE1,CHEM1,7:R2-1:R2$$$V2.0)
Pdss2/Mclk1 DKO cells [1]
  mitochondrial respiration (OCR) compared with UQ10 treatment alone: Higher respiration rates
Pdss2/Mclk1 DKO MEFs
  cellular uptake of exogenous UQ10: improves UQ10 uptake into cells
[2]; FIG. 17C right panel
  UQ uptake into mitochondria compared to McC1: less stimulating action on UQ uptake into mitochondria
[2]; in combination with UQ10, vs UQ10 alone
  uptake of exogenous UQ10 into mitochondria: augmented uptake of UQ into mitochondria
[3]
  surfactant (drop collapse) activity: potent surfactant activity
Pdss2/Mclk1 DKO cells [4]; 10 μM surfactin with a small amount of UQ10 (FIG. 17D)
  viability rescue of DKO cells: full viability rescue
Pdss2/Mclk1 DKO cells [4]; compound by itself, no UQ10 added
  survival of DKO cells in galactose medium: no effect
[5]
  solubilization power for UQ compared to McC1: lower solubilization power than McC1
  water solubility of UQ10 in the presence of the compound: increased

## Benzalkonium chloride [BAC]
cells
  cellular uptake of UQ10 compared to adding UQ10 alone: increased cellular uptake of UQ10

## COC1=C(OC)C(=O)C(C/C=C(\C)CC/C=C(\C)CC/C=C(\C)CC/C=C(\C)CC/C=C(\C)CC/C=C(\C)CC/C=C(\C)CC/C=C(\C)CCC=C(C)C)=C(C)C1=O [UQ9, ubiquinone-9]
Pdss2/Mclk1 DKO cells [4]; if provided at a sufficient amount
  rescue from galactose-induced cell death by UQ supplementation: sufficient to rescue them from galactose-induced cell death

## CCCCCOc1ccc(-c2cc(-c3ccc(C(=O)N[C@H]4C[C@@H](O)[C@@H](O)NC(=O)[C@@H]5[C@@H](O)[C@@H](C)CN5C(=O)[C@H]([C@H](O)CC(N)=O)NC(=O)[C@H]([C@H](O)[C@@H](O)c5ccc(O)c(OS(=O)(=O)O)c5)NC(=O)[C@@H]5C[C@@H](O)CN5C(=O)[C@H]([C@@H](C)O)NC4=O)cc3)no2)cc1 [MFG, Micafungin] (X2-[Orn(4R-OH,5R-OH)]T[Hyp][hTyr(3S-OH,4S-OH,3'-OSO3H)][Gln(3R-OH)][Pro(3S-OH,4S-Me)]; lactam 1-C)
Wildtype MEFs
  cellular uptake of exogenous UQ10: did not further increase the level of UQ10
[3]
  surfactant (drop collapse) activity: no drop collapse activity

## Saponins
[5]
  solubilization of UQ10 in water by the compound: improve the water solubility of UQ10

## CCCCCCCC/C=C\CCCCCCCC(=O)ON1C(=O)CC(S(=O)(=O)O)C1=O (stereo not drawn) [SSO, sulfo-N-succinimidyl oleate]
Wildtype MEFs; cells treated with UQ10 or UQ10 combined with McC1 (FIG. 8)
  effect on cellular uptake of UQ10: inhibits cellular uptake of UQ10

## O=C(O)c1ccc(O)cc1O [2,4-DHB, 2,4-dihydroxybenzoic acid]
Mclk1 KO cells
  survival of Mclk1 KO cells in galactose-containing media: allows them to survive in galactose-containing media

## lipopeptide detergent-12 [LPD-12]
[5]
  solubilization of UQ10 in water by the compound: increases the water solubilization of UQ10

## CCCCCOc1ccc(-c2ccc(-c3ccc(C(=O)N[C@H]4C[C@@H](O)[C@@H](O)NC(=O)[C@@H]5[C@@H](O)[C@@H](C)CN5C(=O)[C@H]([C@@H](C)O)NC(=O)[C@H]([C@H](O)[C@@H](O)c5ccc(O)cc5)NC(=O)[C@@H]5C[C@@H](O)CN5C(=O)[C@H]([C@@H](C)O)NC4=O)cc3)cc2)cc1 [AFG, Anidulafungin] ({pTerphenylCO(4''-OnC5H11)}-[Orn(4R-OH,5R-OH)]T[Hyp][hTyr(3S-OH,4S-OH)]T[Pro(3S-OH,4S-Me)]; lactam 1-C)
Wildtype MEFs
  cellular uptake of exogenous UQ10: did not further increase the level of UQ10
[3]
  surfactant (drop collapse) activity: no drop collapse activity

## CC(=O)O[C@@]12CO[C@@H]1C[C@H](O)[C@@]1(C)C(=O)[C@H](O)C3=C(C)[C@@H](OC(=O)[C@H](O)[C@@H](NC(=O)OC(C)(C)C)c4ccccc4)C[C@@](O)([C@@H](OC(=O)c4ccccc4)[C@H]21)C3(C)C [docetaxel]
[6]
  solubility in water: 4.93 µg/mL (≈ 6.1 µM)

## C=CCNC1=C2C[C@@H](C)C[C@H](OC)[C@H](O)[C@@H](C)/C=C(\C)[C@H](OC(N)=O)[C@@H](OC)/C=C\C=C(/C)C(=O)NC(=CC1=O)C2=O [17-AAG]
[6]
  solubility in water: 100 µg/mL (≈ 171 µM)
